According to PubChem BioAssay (NCI):
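Test compounds were applied to cells in 96-well plates for 48 hours at 5 doses. TGI: concentration producing complete growth inhibition.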

Legend:
Experiment in all cases: NCI tumour cell line growth inhibition, 48 h
786-0 renal = tested on: 786-0 renal
A549 NSCLC = tested on: A549 NSCLC
CAKI-1 renal = tested on: CAKI-1 renal
CCRF-CEM leukemia = tested on: CCRF-CEM leukemia
COLO 205 colon = tested on: COLO 205 colon
DLD-1 colon = tested on: DLD-1 colon
DMS 114 small cell lung = tested on: DMS 114 small cell lung
DMS 273 small cell lung = tested on: DMS 273 small cell lung
EKVX NSCLC = tested on: EKVX NSCLC
HCC-2998 colon = tested on: HCC-2998 colon
HCT-116 colon = tested on: HCT-116 colon
HCT-15 colon = tested on: HCT-15 colon
HOP-62 NSCLC = tested on: HOP-62 NSCLC
HOP-92 NSCLC = tested on: HOP-92 NSCLC
HT29 colon = tested on: HT29 colon
IGROV1 ovarian = tested on: IGROV1 ovarian
K-562 leukemia = tested on: K-562 leukemia
KM12 colon = tested on: KM12 colon
LOX IMVI melanoma = tested on: LOX IMVI melanoma
LXFL 529 NSCLC = tested on: LXFL 529 NSCLC
M14 melanoma = tested on: M14 melanoma
M19-MEL melanoma = tested on: M19-MEL melanoma
MALME-3M melanoma = tested on: MALME-3M melanoma
MOLT-4 leukemia = tested on: MOLT-4 leukemia
NCI-H226 lung = tested on: NCI-H226 lung
NCI-H23 lung = tested on: NCI-H23 lung
NCI-H460 lung = tested on: NCI-H460 lung
NCI-H522 lung = tested on: NCI-H522 lung
OVCAR-3 ovarian = tested on: OVCAR-3 ovarian
OVCAR-4 ovarian = tested on: OVCAR-4 ovarian
OVCAR-5 ovarian = tested on: OVCAR-5 ovarian
OVCAR-8 ovarian = tested on: OVCAR-8 ovarian
RXF 393 renal = tested on: RXF 393 renal
SF-268 CNS = tested on: SF-268 CNS
SF-295 CNS = tested on: SF-295 CNS
SF-539 CNS = tested on: SF-539 CNS
SK-MEL-28 melanoma = tested on: SK-MEL-28 melanoma
SK-MEL-5 melanoma = tested on: SK-MEL-5 melanoma
SK-OV-3 ovarian = tested on: SK-OV-3 ovarian
SN12C renal = tested on: SN12C renal
SNB-19 CNS = tested on: SNB-19 CNS
SNB-75 CNS = tested on: SNB-75 CNS
SNB-78 CNS = tested on: SNB-78 CNS
SW-620 colon = tested on: SW-620 colon
TK-10 renal = tested on: TK-10 renal
U251 CNS = tested on: U251 CNS
UACC-62 melanoma = tested on: UACC-62 melanoma
UO-31 renal = tested on: UO-31 renal
XF 498 CNS = tested on: XF 498 CNS
A498 renal = tested on: A498 renal
ACHN renal = tested on: ACHN renal
BT-549 breast = tested on: BT-549 breast
DU-145 prostate = tested on: DU-145 prostate
HL-60(TB) leukemia = tested on: HL-60(TB) leukemia
HOP-18 NSCLC = tested on: HOP-18 NSCLC
HS 578T breast = tested on: HS 578T breast
KM20L2 colon = tested on: KM20L2 colon
MCF7 breast = tested on: MCF7 breast
MDA-MB-231 breast = tested on: MDA-MB-231 breast
MDA-MB-435 = tested on: MDA-MB-435
MDA-N = tested on: MDA-N
NCI/ADR-RES ovarian = tested on: NCI/ADR-RES ovarian
PC-3 prostate = tested on: PC-3 prostate
RPMI-8226 leukemia = tested on: RPMI-8226 leukemia
RXF-631 renal = tested on: RXF-631 renal
SK-MEL-2 melanoma = tested on: SK-MEL-2 melanoma
SR leukemia = tested on: SR leukemia
T-47D breast = tested on: T-47D breast
UACC-257 melanoma = tested on: UACC-257 melanoma

O=C(n1c2ccccc2c2n[nH]c(=S)nc21)C(F)(F)F
TGI (786-0 renal): > 100 µM | TGI (A549 NSCLC): > 100 µM | TGI (CAKI-1 renal): > 100 µM | TGI (CCRF-CEM leukemia): > 100 µM | TGI (COLO 205 colon): > 100 µM | TGI (DLD-1 colon): > 100 µM | TGI (DMS 114 small cell lung): > 100 µM | TGI (DMS 273 small cell lung): > 100 µM | TGI (EKVX NSCLC): > 100 µM | TGI (HCC-2998 colon): > 100 µM | TGI (HCT-116 colon): > 100 µM | TGI (HCT-15 colon): > 100 µM | TGI (HOP-62 NSCLC): > 100 µM | TGI (HOP-92 NSCLC): > 100 µM | TGI (HT29 colon): > 100 µM | TGI (IGROV1 ovarian): > 100 µM | TGI (K-562 leukemia): > 100 µM | TGI (KM12 colon): > 100 µM | TGI (LOX IMVI melanoma): > 100 µM | TGI (LXFL 529 NSCLC): > 100 µM | TGI (M14 melanoma): > 100 µM | TGI (M19-MEL melanoma): > 100 µM | TGI (MALME-3M melanoma): > 100 µM | TGI (MOLT-4 leukemia): > 100 µM | TGI (NCI-H226 lung): > 100 µM | TGI (NCI-H23 lung): > 100 µM | TGI (NCI-H460 lung): > 100 µM | TGI (NCI-H522 lung): > 100 µM | TGI (OVCAR-3 ovarian): > 100 µM | TGI (OVCAR-4 ovarian): > 100 µM | TGI (OVCAR-5 ovarian): > 100 µM | TGI (OVCAR-8 ovarian): > 100 µM | TGI (RXF 393 renal): > 100 µM | TGI (SF-268 CNS): > 100 µM | TGI (SF-295 CNS): > 100 µM | TGI (SF-539 CNS): > 100 µM | TGI (SK-MEL-28 melanoma): > 100 µM | TGI (SK-MEL-5 melanoma): > 100 µM | TGI (SK-OV-3 ovarian): > 100 µM | TGI (SN12C renal): > 100 µM | TGI (SNB-19 CNS): > 100 µM | TGI (SNB-75 CNS): > 100 µM | TGI (SNB-78 CNS): > 100 µM | TGI (SW-620 colon): > 100 µM | TGI (TK-10 renal): > 100 µM | TGI (U251 CNS): > 100 µM | TGI (UACC-62 melanoma): > 100 µM | TGI (UO-31 renal): > 100 µM | TGI (XF 498 CNS): > 100 µM

CC(=O)CC[N+](C)(C)C
TGI (786-0 renal): 59.3 µM | TGI (A498 renal): 91.9 µM | TGI (A549 NSCLC): > 94.6 µM | TGI (ACHN renal): 26.5 µM | TGI (BT-549 breast): 62.6 µM | TGI (CAKI-1 renal): 3.83 µM | TGI (CCRF-CEM leukemia): 13.7 µM | TGI (COLO 205 colon): 17.5 µM | TGI (DLD-1 colon): 35.4 µM | TGI (DMS 273 small cell lung): 53.2 µM | TGI (DU-145 prostate): > 79 µM | TGI (EKVX NSCLC): 28.9 µM | TGI (HCC-2998 colon): 68.1 µM | TGI (HCT-116 colon): 54.4 µM | TGI (HCT-15 colon): 46.4 µM | TGI (HL-60(TB) leukemia): 14 µM | TGI (HOP-18 NSCLC): 30.5 µM | TGI (HOP-62 NSCLC): > 100 µM | TGI (HOP-92 NSCLC): 22.7 µM | TGI (HS 578T breast): > 39.3 µM | TGI (HT29 colon): 53.5 µM | TGI (IGROV1 ovarian): 53.4 µM | TGI (K-562 leukemia): 13.5 µM | TGI (KM12 colon): > 81.5 µM | TGI (KM20L2 colon): > 56.6 µM | TGI (LOX IMVI melanoma): 37.8 µM | TGI (LXFL 529 NSCLC): 27.2 µM | TGI (M14 melanoma): 52.1 µM | TGI (M19-MEL melanoma): > 58.2 µM | TGI (MALME-3M melanoma): 24.2 µM | TGI (MCF7 breast): 64.8 µM | TGI (MDA-MB-231 breast): 38.6 µM | TGI (MDA-MB-435): 76.7 µM | TGI (MDA-N): > 100 µM | TGI (MOLT-4 leukemia): 24.7 µM | TGI (NCI-H226 lung): 88.2 µM | TGI (NCI-H23 lung): 59.6 µM | TGI (NCI-H460 lung): > 90 µM | TGI (NCI-H522 lung): 1.96 µM | TGI (NCI/ADR-RES ovarian): > 76.9 µM | TGI (OVCAR-3 ovarian): 40.7 µM | TGI (OVCAR-4 ovarian): 30.2 µM | TGI (OVCAR-5 ovarian): 67.6 µM | TGI (OVCAR-8 ovarian): 67.5 µM | TGI (PC-3 prostate): 99.5 µM | TGI (RPMI-8226 leukemia): 26 µM | TGI (RXF 393 renal): 20.1 µM | TGI (RXF-631 renal): > 100 µM | TGI (SF-268 CNS): 76.8 µM | TGI (SF-295 CNS): > 100 µM | TGI (SF-539 CNS): 82.9 µM | TGI (SK-MEL-2 melanoma): 64.4 µM | TGI (SK-MEL-28 melanoma): 50 µM | TGI (SK-MEL-5 melanoma): 59.6 µM | TGI (SK-OV-3 ovarian): 51.9 µM | TGI (SN12C renal): 53.6 µM | TGI (SNB-19 CNS): > 36.9 µM | TGI (SNB-75 CNS): 70.3 µM | TGI (SNB-78 CNS): 19.7 µM | TGI (SR leukemia): 21.5 µM | TGI (SW-620 colon): 27.8 µM | TGI (T-47D breast): 52.7 µM | TGI (TK-10 renal): 38.9 µM | TGI (U251 CNS): 59.9 µM | TGI (UACC-257 melanoma): 54.6 µM | TGI (UACC-62 melanoma): 52.4 µM | TGI (UO-31 renal): 67.8 µM

O=C1c2ccccc2C(=O)c2c1ccc1conc21
TGI (786-0 renal): 5.79 µM | TGI (A498 renal): 24.3 µM | TGI (A549 NSCLC): 11.2 µM | TGI (ACHN renal): 3.75 µM | TGI (BT-549 breast): 3.68 µM | TGI (CAKI-1 renal): 8.93 µM | TGI (CCRF-CEM leukemia): 71.1 µM | TGI (COLO 205 colon): 12.3 µM | TGI (DLD-1 colon): 7.15 µM | TGI (DMS 114 small cell lung): 3.42 µM | TGI (DMS 273 small cell lung): 8.17 µM | TGI (DU-145 prostate): 7.07 µM | TGI (EKVX NSCLC): 3.87 µM | TGI (HCC-2998 colon): 29.8 µM | TGI (HCT-116 colon): 3.51 µM | TGI (HCT-15 colon): 5.66 µM | TGI (HL-60(TB) leukemia): 4.16 µM | TGI (HOP-18 NSCLC): 26.2 µM | TGI (HOP-62 NSCLC): 9.11 µM | TGI (HOP-92 NSCLC): 3.04 µM | TGI (HS 578T breast): 38.6 µM | TGI (HT29 colon): 13 µM | TGI (IGROV1 ovarian): 5.88 µM | TGI (K-562 leukemia): 42.5 µM | TGI (KM12 colon): 7.45 µM | TGI (KM20L2 colon): 28.8 µM | TGI (LOX IMVI melanoma): 1.78 µM | TGI (LXFL 529 NSCLC): 3.83 µM | TGI (M14 melanoma): 5.7 µM | TGI (M19-MEL melanoma): 3.09 µM | TGI (MALME-3M melanoma): 4.75 µM | TGI (MCF7 breast): 2.65 µM | TGI (MDA-MB-231 breast): 1.42 µM | TGI (MDA-MB-435): 1.37 µM | TGI (MDA-N): 1.41 µM | TGI (MOLT-4 leukemia): 6.25 µM | TGI (NCI-H226 lung): 14.9 µM | TGI (NCI-H23 lung): 3.3 µM | TGI (NCI-H460 lung): 12.2 µM | TGI (NCI-H522 lung): 3.44 µM | TGI (NCI/ADR-RES ovarian): 8.45 µM | TGI (OVCAR-3 ovarian): 0.974 µM | TGI (OVCAR-4 ovarian): 2.02 µM | TGI (OVCAR-5 ovarian): 6.93 µM | TGI (OVCAR-8 ovarian): 4.21 µM | TGI (PC-3 prostate): 5.06 µM | TGI (RPMI-8226 leukemia): 3.85 µM | TGI (RXF 393 renal): 5.64 µM | TGI (RXF-631 renal): > 26.5 µM | TGI (SF-268 CNS): 6.8 µM | TGI (SF-295 CNS): 4.97 µM | TGI (SF-539 CNS): 3.87 µM | TGI (SK-MEL-2 melanoma): 7.14 µM | TGI (SK-MEL-28 melanoma): 7.94 µM | TGI (SK-MEL-5 melanoma): 4.83 µM | TGI (SK-OV-3 ovarian): 13.3 µM | TGI (SN12C renal): 3.61 µM | TGI (SNB-19 CNS): 11.5 µM | TGI (SNB-75 CNS): 20.5 µM | TGI (SNB-78 CNS): 10.3 µM | TGI (SR leukemia): 18.3 µM | TGI (SW-620 colon): 4.36 µM | TGI (T-47D breast): 2.02 µM | TGI (TK-10 renal): 15.3 µM | TGI (U251 CNS): 3.14 µM | TGI (UACC-257 melanoma): 4.37 µM | TGI (UACC-62 melanoma): 5.63 µM | TGI (UO-31 renal): 9.53 µM
